Values joined by “and” are separate entries in the source; they are usually repeats but may differ in a detail not shown here. Equal entries are not always repeated.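 Where inhibition never reached the appropriate level, the endpoint shown equals the highest concentration tested. Otherwise, values were interpolated linearly from a five-concentration, 48-hour dose response in 96-well plates. The concentration for 50% growth inhibition is given as GI50. TGI: total growth inhibition.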 Bounds are passed on as bounds.

The term TGI denotes the concentration at which net growth stops. A low value points to more potent growth arrest. In general, GI50 refers to the concentration that inhibits growth by half.

Among the test systems are LOX IMVI melanoma; MALME-3M melanoma; NCI-H226 lung; NCI-H23 lung; NCI-H460 lung; RXF 393 renal; SF-539 CNS; SW-620 colon; UACC-257 melanoma; HOP-92 NSCLC.
Experiment in all cases: DTP human tumour cell line panel, 48 h

As for `OCC(O)C(O)C(O)c1nn(-c2ccccc2)c2nc3cc(Cl)c(Cl)cc3nc12` (stereo unspecified), the total growth inhibition concentration (TGI) with LOX IMVI melanoma was more than 100 µM; with MALME-3M melanoma it was 77.7 µM; in the test on NCI-H226 lung, more than 100 µM; with NCI-H23 lung, more than 100 µM; in the test with NCI-H460 lung, more than 100 µM; in the test with RXF 393 renal, 47.7 µM. Also, the results for the TGI in the test with SF-539 CNS, in the test with SW-620 colon and in the test on UACC-257 melanoma were 38.5 µM, more than 100 µM and more than 100 µM, respectively.
For `CC(C)C(=O)[O-].CC(C)C(=O)[O-].N.N.N.N.[Co+3].[O-][Cl+3]([O-])([O-])[O-]`, the GI50 in the test with HOP-92 NSCLC, in the test on LOX IMVI melanoma, with MALME-3M melanoma, in the test with NCI-H23 lung, in the test with NCI-H460 lung and in the test on SF-539 CNS was more than 100 µM each time. Moreover, the GI50 in the test with SW-620 colon and with UACC-257 melanoma was more than 100 µM each time. Further, the TGI in the test on HOP-92 NSCLC, in the test on LOX IMVI melanoma, with MALME-3M melanoma, with NCI-H23 lung, in the test on NCI-H460 lung and in the test on SF-539 CNS was more than 100 µM each time. The TGI in the test on SW-620 colon and in the test with UACC-257 melanoma was more than 100 µM in each case.
`c1ccc(B2OCC(C3OB(c4ccccc4)OC4COB(c5ccccc5)OC43)O2)cc1` (stereo unspecified): the TGI in the test with HOP-92 NSCLC, with LOX IMVI melanoma, in the test on MALME-3M melanoma, in the test on NCI-H23 lung, in the test on NCI-H460 lung and in the test with RXF 393 renal was more than 100 µM in each case. Besides, the TGI in the test on SF-539 CNS, with SW-620 colon and with UACC-257 melanoma was more than 100 µM throughout.
As to `CCOC(=O)N1C(c2ccccc2)C=CC(c2ccccc2)N1C(=O)OCC` (stereo unspecified), the TGI in the test with HOP-92 NSCLC, with LOX IMVI melanoma, in the test on MALME-3M melanoma, with NCI-H23 lung, with NCI-H460 lung and in the test with RXF 393 renal was more than 100 µM each time. In addition, the TGI in the test with SF-539 CNS, with SW-620 colon and in the test on UACC-257 melanoma was more than 100 µM throughout.
Regarding `COc1cc(/C=C\c2ccc(Br)cc2)cc(OC)c1OC`, the TGI with HOP-92 NSCLC was more than 100 µM; in the test on MALME-3M melanoma, 34.8 µM; in the test on SF-539 CNS it was 0.00366 µM; in the test with SW-620 colon, more than 100 µM; with UACC-257 melanoma it was 11.3 µM.
`C=C1CCCC2[C@](C)(CC3=C(O)C(=O)C=C(OC)C3=O)[C@@H](C)CC[C@]12C` (stereo partly specified): the TGI with LOX IMVI melanoma was more than 100 µM; in the test on MALME-3M melanoma, 9.93 µM; in the test with NCI-H23 lung it was 12.5 µM; with NCI-H460 lung it was 17.5 µM; with RXF 393 renal, 10.6 µM; in the test on SF-539 CNS, 16 µM. Besides, the TGI in the test on SW-620 colon worked out at 53.3 µM; in the test on UACC-257 melanoma, 16.4 µM.
For the molecule `N#Cc1ccc(Oc2cccc(Oc3ccccc3)c2)cc1C#N`, the GI50 in the test with HOP-92 NSCLC and in the test with MALME-3M melanoma was more than 100 µM each time. Besides, the TGI with HOP-92 NSCLC, in the test on MALME-3M melanoma, with NCI-H23 lung, in the test on NCI-H460 lung, in the test on RXF 393 renal and in the test with SF-539 CNS was more than 100 µM each time. Besides, the TGI with SW-620 colon was more than 100 µM.
For the molecule `COC12CCC(C(C(=O)c3ccccc3)=C1C(=O)c1ccccc1)C(O)C2` (stereo unspecified), the TGI with HOP-92 NSCLC, with MALME-3M melanoma, with NCI-H226 lung, with NCI-H23 lung, in the test on SF-539 CNS and with SW-620 colon was more than 100 µM throughout. Also, the TGI in the test on UACC-257 melanoma is more than 100 µM.
As for `CC(=O)[O-].[Zn].c1ccc(/C(=N\Nc2ccccn2)c2ccccn2)cc1`, the GI50 with HOP-92 NSCLC was 0.0122 µM; in the test on LOX IMVI melanoma it was 0.32 µM; in the test with NCI-H226 lung it was 0.212 µM; with NCI-H460 lung, 0.35 µM; in the test with SF-539 CNS, 1.43 µM; in the test on SW-620 colon it was 0.0319 µM. Also, the TGI in the test on HOP-92 NSCLC was 13.3 µM; with LOX IMVI melanoma, 1.59 µM; in the test with MALME-3M melanoma, 1.58 µM; with NCI-H226 lung, 0.962 µM and 5.73 µM; with NCI-H23 lung it was 19.3 µM; with NCI-H460 lung, 1.32 µM. For the same molecule, the values for the TGI in the test on SF-539 CNS, with SW-620 colon and with UACC-257 melanoma were 9.53 µM, 1.63 µM and 2.08 µM, respectively.
Consider `CCn1c(=O)c2ccccc2n2c(=O)c3cc4ccccc4cc3nc12`, for which the TGI was more than 100 µM with LOX IMVI melanoma; more than 100 µM with MALME-3M melanoma; more than 100 µM in the test with NCI-H226 lung; more than 100 µM in the test with NCI-H23 lung; more than 100 µM in the test on NCI-H460 lung; 37 µM with RXF 393 renal. For the same molecule, the concentration for total growth inhibition (TGI) with SF-539 CNS, in the test on SW-620 colon and in the test on UACC-257 melanoma was more than 100 µM in each case.
As for `CCOC(=O)C1=C(Nc2ccc(Br)cc2)OC/C1=N\NC(=O)c1ccccc1O`, the TGI was 20.3 µM in the test with LOX IMVI melanoma; more than 100 µM in the test on MALME-3M melanoma; more than 84 µM in the test on NCI-H226 lung; 33.1 µM in the test on NCI-H23 lung; more than 100 µM in the test on NCI-H460 lung; 14.2 µM with RXF 393 renal. The TGI was more than 77.6 µM with SF-539 CNS, more than 49.4 µM in the test on SW-620 colon and more than 95.3 µM in the test with UACC-257 melanoma.
Consider `CN(C)CCCCn1ccc2c1C(=O)c1c(c(O)c3ccccc3c1O)C2=O`, for which the GI50 with LOX IMVI melanoma was 10.4 µM; with NCI-H226 lung it was 6.56 µM; with NCI-H23 lung, 11.2 µM; in the test with NCI-H460 lung it was 19.2 µM; in the test on RXF 393 renal, 2.18 µM; in the test with UACC-257 melanoma, 15.5 µM. The TGI with LOX IMVI melanoma came to 24.2 µM; with NCI-H226 lung, 21.8 µM; in the test on NCI-H23 lung it was 23.3 µM; in the test on NCI-H460 lung, 36.9 µM; in the test with RXF 393 renal, 8.91 µM; in the test with UACC-257 melanoma it was 29.5 µM.
On to `Cc1ccccc1C(=O)Oc1ccc(OCc2ccccc2)cc1`, for which the TGI in the test on HOP-92 NSCLC, in the test with LOX IMVI melanoma, in the test with MALME-3M melanoma, in the test on NCI-H23 lung, in the test on NCI-H460 lung and in the test on RXF 393 renal was more than 100 µM throughout. Further, the TGI in the test on SF-539 CNS, in the test on SW-620 colon and in the test with UACC-257 melanoma was more than 100 µM throughout.

The record behind these values is PubChem BioAssay (NCI).
